Here are results for six molecules from patent US20100028293A1, “Agents for control of codling moth in fruit orchards” (Efal Chemical Industries Ltd., priority 2004, published 2010).

The test system of test [1] is codling moth adults. Briefly: Cage bioassay, paired traps with synthetic compounds versus water/ethanol control trap. The format is in vivo, Cydia pomonella. The note with it: for attractiveness to the adult insects (insects caught in trap): individual compounds at the concentrations detected in the leaf extracts, paired with control trap of water and ethanol, 60 adults, overnight, decreasing order: methyl salicylate and theaspirane mixture, linalool, benzyl alcohol. Here is the method: (i) Insects—Eggs of the CM Cydia pomonella L. were hatched at room temperature in a petri dish. The larvae were fed an artificial diet (Manduca Premix-Heliothis Premix, Stonefly Inc., Brvan, Tex.), kept at 25±0.5° C., 60±1% relative humidity and a photoperiod of 16:8 h (L:D) until the fifth instar larvae, which were transferred to corrugated paper strips (2 cm^2). Upon emergence, adult insects of mixed sex and age (within 2 days) were used for the cage bioassays.
(v) Cage bioassays—Trapping tests were conducted in screen cages (96×68×45 cm) in the laboratory at room temperature (23° C.±3° C.) based on the method of Zhu et al. (2003). Sixty codling moth adults of mixed sex and ages (2 days after pupal emergence) were released into a cage containing the traps with different treatments. […] A Whatman paper wick (10 cm long) was used as a dispenser. To examine the effects of adding recombinant BGL1 to the leaf extract, four traps were constructed and put into the same cage. The first trap contained 10 ml of leaf extract with the addition of recombinant BGL1. The second trap contained the same amount of leaf extract with the addition of glucoimidazole. The third trap contained only leaf extract and the fourth trap contained water. The insects caught in the traps, or around the trap, were counted 12 h after their release. The insects around the trap were defined as follows: the space of the screen cage was divided equally into four parts. Each trap was put in the center of each part. The number of the insects present in each specific space, not including the ones inside the trap, was obtained in the experiments. To test the attractiveness of the synthetic compounds, traps were made with the individual chemicals that were first dissolved in ethanol at the concentrations determined by the SPME-GC-MS analyses in leaf extracts treated with BGL1. The final concentration of ethanol was 0.01%. Each trap was kept in the cage with only a control water trap including 0.01% ethanol. The experiments were conducted overnight (from 9 pm to 9 am) to cover their active time before the twilight in the early morning. […] This experiment was replicated 3 times. The traps were randomly arranged in the replications to avoid possible position effect of the traps. The studies on sex ratios of trapped insects were skipped because of complicated involvement of insect pheromones.

For test [2], the system named is endogenous β-glucosidase in apple leaf extracts. In words: Quantitative β-glucosidase activity assay with pNPG as substrate. The format is biochemical, Malus domestica. The note with it: 2 μM glucoimidazole added to leaf homogenate. As for the experimental part:
(ii) Apple leaf extract treatments—Apple (cv. Anna) spurs with both leaves and fruit were excised from a commercial orchard in the suburb of Rehovot, Israel, in June 2004. The leaves were excised from the spurs, rinsed with double distilled water (DDW) and then dried with filter paper. Dried leaves were homogenized in liquid nitrogen. Three times the weight of ice-cold extraction buffer containing 10 mM EDTA and 4 mM DTT in 50 mM citrate buffer, pH 4.3, was added to the leaf homogenate (4-5 g per treatment). The mixture was then rotated for 1 h at 4° C. and centrifuged at 16,000 g for 5 min. The supernatant (10 ml per treatment) was collected. In one treatment, 1 unit of recombinant A. niger BGL1 produced in P. pastoris (Dan et al., 2000) was added and the solution was kept at 37° C. for 4 h. In another treatment, 2 μM glucoimidazole (a β-glucosidase inhibitor) was added to the leaf homogenate immediately after the addition of the extraction buffer in order to block any endogenous β-glucosidase activity. Quantitative β-glucosidase activity was assayed using p-nitrophenyl-β-D-glucopyranoside (pNPG) as the substrate according to Shoseyov et al (1990).

For the molecule `CCCCCCCCO` [1-octanol, reference compound], the “effect on the behavior of codling moth adults” value in test [1] (1-octanol alone or added to other compounds) is recorded as “does not have a significant effect”. In test [1] (trap with 70 ng m^−1 1-octanol), the “insects caught in trap” value was “did not catch any insects”.

As to `OCc1ccccc1` [benzyl alcohol], the “attractiveness to the adult insects (insects caught in trap)” value (from here on “attractiveness to the adult insects”) in test [1] is listed as “more attractive than water”.

With `CC(C)=CCC/C(C)=C/CO` [geraniol], the “repellent effect on codling moth adults” value in test [1] (39.4 ng ml^−1) is “exhibited a repellent effect”.

As to `OC[C@@H]1[C@@H](O)[C@H](O)[C@@H](O)c2nccn21` [glucoimidazole], the “β-glucosidase activity in the leaf extract after treatment” value in test [2] is “undetectable levels”.

Consider `C=CC(C)(O)CCC=C(C)C` (stereo not shown) [linalool], for which, in test [1], the “attractiveness to the adult insects” value was “more attractive than water”.

For `COC(=O)c1ccccc1O` [methyl salicylate], the “attractiveness to the adult insects” value in test [1] is recorded as “more attractive than water”.
